Values quoted from earlier work as cited in US20210395200A1, “SYNTHETIC PROCESSES FOR THE PRODUCTION OF 1-((3S,4R)-4-(2,6-DIFLUORO-4-METHOXYPHENYL)-2-OXOPYRROLIDIN-3-YL)-3-PHENYLUREA” (BRISTOL-MYERS SQUIBB COMPANY, priority 2018, published 2021).

Biological target: T1, FPR2 (Homo sapiens, UniProt P25090)
T1 sequence (P25090 1-351): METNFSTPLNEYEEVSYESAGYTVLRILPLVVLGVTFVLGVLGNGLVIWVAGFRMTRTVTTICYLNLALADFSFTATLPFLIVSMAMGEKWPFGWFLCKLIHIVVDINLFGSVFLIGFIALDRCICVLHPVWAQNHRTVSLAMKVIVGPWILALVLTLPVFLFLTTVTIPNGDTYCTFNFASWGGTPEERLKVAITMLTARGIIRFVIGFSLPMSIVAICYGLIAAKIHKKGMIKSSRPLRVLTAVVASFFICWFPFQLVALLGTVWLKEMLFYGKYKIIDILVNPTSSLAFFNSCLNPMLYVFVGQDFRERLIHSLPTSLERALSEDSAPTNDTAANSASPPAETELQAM
Details: background statement referring to U.S. Pat. No. 9,822,069

FPR2 agonist activity: robust FPR2 agonist activity
SMILES: COc1cc(F)c([C@@H]2CNC(=O)[C@H]2NC(=O)Nc2ccccc2)c(F)c1 [Compound 1, 1-((3S,4R)-4-(2,6-difluoro-4-methoxyphenyl)-2-oxopyrrolidin-3-yl)-3-phenylurea]
